Reference: patent publication US7582762B2, “Salt and crystalline forms of (2R)-anti-5-{3-[4-(10,11-difluoromethanodibenzosuber-5-YL)piperazin-1-YL]-2-hydroxypropoxy}quinoline” (Eli Lilly and Company, priority 2001, dated 2009)
“Also recorded” adds a separate entry of the source. Where a name gives a salt, the structure may show the parent alone.

Tests used:
[1] = Moisture sorption profile over relative humidity; assay type: physicochemical; conditions: over a wide range of relative humidity; compared with trihydrochloride salt/crystal (Form I)
[2] = Incorporation of organic solvents into the crystal lattice; assay type: physicochemical; conditions: compared with trihydrochloride salt/crystal (Form I)
[3] = Thermodynamic stability of salt and crystal forms; conditions: for thermodynamic stability relative to trihydrochloride (Form I): compared with trihydrochloride salt/crystal (Form I), hydrochloride

SMILES | moisture sorption (water sorbed) [1] | incorporation of organic solvents [2] | thermodynamic stability relative to trihydrochloride (Form I) [3] | most stable form ([3]; organic solutions and solid state at ambient temperature/relative humidity) | incorporation of organic solvents ([2]; hydrochloride) | most stable form ([3]; aqueous and acidic media)
Cl.Cl.Cl.Cl.Cl.O[C@@H](COc1cccc2ncccc12)CN1CCN(C2c3ccccc3C3C(c4ccccc42)C3(F)F)CC1.O[C@@H](COc1cccc2ncccc12)CN1CCN(C2c3ccccc3C3C(c4ccccc42)C3(F)F)CC1 (stereo partly drawn) [2.5 salt, (2R)-anti-5-{3-[4-(10,11-difluoromethanodibenzosuber-5-yl)piperazin-1-yl]-2-hydroxypropoxy}quinoline 2.5 hydrochloride] | sorb less water overall over a wide range of relative humidity | do not incorporate organic solvents as readily as the trihydrochloride salt and crystal |  |  |  | 
O[C@@H](COc1cccc2ncccc12)CN1CCN([C@@H]2c3ccccc3[C@@H]3[C@H](c4ccccc42)C3(F)F)CC1 [Form II, (2R)-anti-5-{3-[4-(10,11-difluoromethanodibenzosuber-5-yl)piperazin-1-yl]-2-hydroxypropoxy}quinoline 2.5 hydrochloride] | sorb less water overall over a wide range of relative humidity |  | thermodynamically more stable than Form I; also recorded: thermodynamically more stable than the trihydrochloride salt and crystal | most stable in organic solutions and in the solid state at ambient temperature/relative humidity | do not incorporate organic solvents as readily as Form I; also recorded: do not incorporate organic solvents as readily as the trihydrochloride salt and crystal | 
O[C@@H](COc1cccc2ncccc12)CN1CCN([C@@H]2c3ccccc3[C@@H]3[C@H](c4ccccc42)C3(F)F)CC1 [Form III, (2R)-anti-5-{3-[4-(10,11-difluoromethanodibenzosuber-5-yl)piperazin-1-yl]-2-hydroxypropoxy}quinoline 2.5 hydrochloride] | sorb less water overall over a wide range of relative humidity |  | thermodynamically more stable than Form I; also recorded: thermodynamically more stable than the trihydrochloride salt and crystal |  | do not incorporate organic solvents as readily as Form I; also recorded: do not incorporate organic solvents as readily as the trihydrochloride salt and crystal | most stable in aqueous and acidic media
